Data taken from patent US11439147B2, “3-pyridyl oxyaniline compound and use of same” (Sumitomo Chemical Company, Limited, priority 2016, dated 2022).

Experiments:
Assay type in all cases: in vivo
Arabidopsis thaliana = assay: Inhibitory activity on emergence of Arabidopsis thaliana; details: ten days after sowing, visual index 0: no effect to 100: no emergence
Experimental: Test Example 4: Inhibitory Activity on Emergence of Arabiclopsis thaliana Each well of 24 well microtiter plates was matted with a filter paper, and to the filter paper was added 150 μL of distilled water. To the distilled water was added a solution in which the present compound, the compound A, or the compound B was dissolved in dimethyl sulfoxide so that the concentration of each of the chemicals would be values indicated in Table 4. Next, seeds of Arabidopsis thaliana were sown into each well and grown under the condition that a cultivation at 25° C. under lighting for 16 hours and a successive cultivation at 25° C. under dark for 8 hours were repeated. Ten days after sowing, the inhibitory activity on emergence of Arabidopsis thaliana was visually evaluated by classifying the activity into 0 to 100 indices (0: no effect to 100: no emergence).

Amaranthus retroflexus = assay: Post-emergence treatment test in a farmland (pot, foliar spray); details: application rate 4 kg/ha; two-leaf stage, sprayed; nine days after spraying; visual, 11 stages 0 (no effect) to 10 (complete kill)
Experimental: Test Example 1: Post-emergence treatment test in a farmland
Nursery soil was put in a plastic pot measuring 8 cm in diameter and 6.5 cm in height, and in the pot, seeds of Amaranthus retroflexus were sown, and then covered with soil of about 0.5 cm thickness, and the plants were grown in a greenhouse. When the Amaranthus retroflexus plants were grown to two-leaf stage, a diluted solution containing any one of the present compound, the compound A, or the compound B was uniformly sprayed on the whole Amaranthus retroflexus plants so that the application rates of the chemicals would be values indicated in Table 1.
Here the diluted solution was prepared by dissolving the present compound, the compound A, or the compound B in dimethylformamide solution containing 2% of Tween 20 (polyoxyethylene sorbitan fatty acid ester) (manufactured by MP Biomedicals Inc.) and then diluting the solution with deionized water.
The Amaranthus retroflexus plants that were sprayed with the diluted solution containing the present compound, the compound A, or the compound B were grown in a greenhouse. Nine clays after spraying, the efficacy for controlling Amaranthus retroflexus plants was observed, thereby examining a herbicidal effect. Here the herbicidal effect was visually observed and evaluated by classifying the effect into 11 stages from 0 (no effect) to 10 (complete kill).

Echinochloa oryzicola [1] = assay: Herbicidal effect, pot test in greenhouse (paddy water treatment); details: twelve days after treatment, visual index 0 (no effect) to 100 (complete kill)
Text: (§1) Herbicidal effect against Echinochloa oryzicola and Lindernia procumbens (Pot test in greenhouse) Soil was put in a plastic pot (φ 5 cm×5.5 cm), and soil was puddled, and the plastic pot was allowed to stand for 2 days, Lindernia procumbens seeds were mixed with soil, and sown to the surface of puddled soil in the pot. On the same day, the sprouted seeds of Echinochloa oryzicola were sown into about 0.5 cm depth from the soil surface of the pot, and the submerged depth was adjusted to about 2 cm. Treatment solutions containing the present, compound, the compound A, or the compound B were prepared by dissolving the present compound, the compound A, or the compound B in acetone, followed by diluting the resulting solutions with distilled water. On the same day as the sowing of Echinochloa oryzicola and Lindernia procumbens, the treatment solution containing the present compound, the compound A, or the compound B was poured into paddy water in the pot so that the application rates of the chemicals would be values indicated in Table 2. Twelve days after the treatment, the herbicidal effect on weeds was visually observed by classifying the effect into 0 to 100 indices (0 (no effect) to 100 (complete kill)).

Lindernia procumbens = assay: as above; details: twelve days after treatment, visual index 0 (no effect) to 100 (complete kill)
Text: as §1

Echinochloa oryzicola [2] = assay: Hydroponic test of Echinochloa oryzicola; details: ten days, visual index 0 (no effect) to 100 (complete kill)
Experimental: Test Example 3: Hydroponic Test of Echinochloa oryzicola
Two (2) mL of distilled water was poured into a plastic tube (2.5 cm in inside diameter×10 cm in height). To the distilled water was added a solution in which the present compound or the compound A was dissolved in dimethyl sulfoxide to prepare the treatment solutions so that, the treatment concentration thereof would be values indicated in table 3. Next, four grains of sprouted Echinochloa oryzicola seeds were put in each treatment solution. The tubes were covered with parafilm, and the seeds were grown under the condition that a cultivation at 25° C. under lightning for 16 hours and a successive cultivation at 25° C. under dark for 8 hours were repeated. Ten days after the addition of the Echinochloa oryzicola seeds, the herbicidal effect on Echinochloa oryzicola was visually observed by classifying the effect into 0 to 100 indices (0 (no effect) to 100 (complete kill)).

[3] = treatment concentration 500 ppm
[4] = treatment concentration 1000 ppm
[5] = application rate 50 g/a into paddy water
[6] = application rate 100 g/a into paddy water
[7] = treatment concentration 125 ppm
[8] = treatment concentration 250 ppm

Structure (SMILES) | Inhibitory Activity on Emergence (Arabidopsis thaliana; [3]) | Inhibitory Activity on Emergence (Arabidopsis thaliana; [4]) | Herbicidal Effect (Amaranthus retroflexus) | Herbicidal Effect Echinochloa oryzicola (Echinochloa oryzicola [1]; [5]) | Herbicidal Effect Echinochloa oryzicola (Echinochloa oryzicola [1]; [6]) | Herbicidal Effect Lindernia procumbens (Lindernia procumbens; [5]) | Herbicidal Effect Lindernia procumbens (Lindernia procumbens; [6]) | Herbicidal Effect (Echinochloa oryzicola [2]; [7]) | Herbicidal Effect (Echinochloa oryzicola [2]; [8]) | Herbicidal Effect (Echinochloa oryzicola [2]; [3])
CCOC(=O)COc1ncccc1Oc1cc(N)c(F)cc1Cl [Compound A, 4-chloro-2-fluoro-5-{2-(ethoxycarbonyl)methoxy-3-pyridyloxy}aniline] | 0 | 0 | 1 | 0 | 10 | 0 | 0 | 0 | 0 | 0
CCOC(=O)COc1ncccc1Oc1cc(NC(=O)CC(=O)C(F)(F)F)c(F)cc1Cl [Compound B] | 0 | 0 | 3 | 0 | 0 | 0 | 0 |  |  | 
CCOC(=O)COc1ncccc1Oc1cc(NC(=O)C=C(Nc2cc(Oc3cccnc3OCC(=O)OCC)c(Cl)cc2F)C(F)(F)F)c(F)cc1Cl [Present compound] | 100 | 100 | 8 | 100 | 100 | 50 | 60 | 100 | 100 | 100
